Assay results published in patent publication US12343319B2, “Compositions and methods for treatment of diseases and disorders” (Atai Therapeutics Inc., priority 2023, dated 2025).
“Also recorded” adds a separate entry of the source.

Columns and labels:
C57BL/6J male mice = experiment: Mouse forced swim test 24 hr after single administration; type: in vivo; details: 3, 10 & 30 mg/kg i.p., 24 hr post-administration
Method: Young adult C57BL/6J male mice (8-9 weeks old at arrival; n=113) were purchased from Charles River (DE). All C57BL/6J mice were housed in groups of 4 per cage. Mice were maintained under controlled conditions (21±2° C., 50±1% humidity, 12/12 h light/dark cycles, lights on at 7 a.m.) with food and water available ad libitum.
Experimental Design: The experimental procedures were in accordance with the European Communities Council Directive (Directive 2010/63 EU into the Polish Directives (Journal of Laws of 2021, item 1331, as amended)) and approved by the Local Ethic Committee in Olsztyn (Approval No. 27/203 from 22 Mar. 2023). […]
Forced Swim Test: After 17 days of acclimatization (11-12 weeks old), all mice were randomly assigned to experimental groups (n=14-15/group). Sample size (n=14 per group) was determined based on G-power calculations using alpha 0.05, t-test and effect size calculation based on mean and SD from vehicle and positive control groups. […] Because little immobility is observed during the first 2 minutes of the FST, only immobility occurring during the last 4 minutes was scored and analyzed. […] All test sessions were recorded using a video camera placed on the side of the cylinder for subsequent behavioral analysis by scorers blinded to the treatment conditions. […]
Data Analysis: Data for each compound have been analyzed separately using the GraphPad Prism 9 statistical software. […]

[1] = test system: primary cortical rat neurons; experiment: Synaptogenesis assay in primary cortical rat neurons; type: cell-based; details: 1 μM (highest concentration), DIV1-DIV10
Method: Pregnant rats for this study were purchased from a commercial breeder. Primary cortical neurons from E17/E18 rat pups were isolated and seeded in 96-well plates. Cells were treated with compound 2-2, FGF (Reference item) or vehicle. After incubation with the respective treatment, cortical neurons were stained for synapsin and tubulin using immunofluorescence.
Stained cells were imaged with the Cytation 5 Multimode reader. From each well, 9 images were taken at 10× magnification. Digital images from cortical neurons were analyzed for the following parameter using a software-supported automatic quantification method: Number of synapsin positive objects. Analysis was performed using Gen5 software. The experiment was run in n=10 technical replicates per condition. Vehicle control and FGF were included on each plate totaling n=20 technical replicates.
Primary cortical neurons were prepared from timed pregnant Spargue Dawley rats at E17/E18. Animals were sacrificed (see section 3.3.1) and embryos were dissected in Calcium and Magnesium free Hanks Balanced Salt Solution (CMF-HBSS) containing 15 mM HEPES and 10 mM NaHCO3, pH 7.2. Embryos were decapitated, skin and skull gently removed and hemispheres were separated. After removing meninges and brain stem, the cortices were isolated, chopped with a sterile razor blade in Chop solution (Hibernate-E without Calcium containing 2% B-27) and digested in 2 mg/mL papain (Worthington) dissolved in Hibernate-E without Calcium for 30 minutes (±5 min) at 30° C. The cortices of the embryos from the two rats were pooled and processed together.
Cortices were triturated for 10-15 times with a fire-polished silanized Pasteur pipette in Hibernate-E without Calcium containing 2% B-27, 0.01% DNaseI, 1 mg/mL BSA, and 1 mg/mL Ovomucoid Inhibitor. Undispersed pieces were allowed to settle by gravity for 3 min and the supernatant was centrifuged for 3 min at 228 g. […]
Cells were counted in a hemacytometer and seeded in nutrition medium on poly-D-lysine pre-coated 96-well plates at a density of 1.5×10^4 cells/well. […]

Row | Structure (SMILES) | immobility time in mouse FST (C57BL/6J male mice) | synaptogenesis compared to VC (synapsin positive objects normalized to tubulin III area) [1]
1 | COc1ccc(OC)c(CCNCc2cc(C)cc(Cl)c2)c1 [Compound 2-1, N-(3-chloro-5-methylbenzyl)-2-(2,5-dimethoxyphenyl)ethan-1-amine] | lack of robust differences; also recorded: Neither compound 2-1 (3, 10 & 30 mg/kg) nor compound 2-2 (3 & 30 mg/kg) showed significant reductions | –
2 | COc1ccc(OC)c(CCNCc2cc(C)cc(F)c2)c1 [Compound 2-2, 2-(2,5-dimethoxyphenyl)-N-(3-fluoro-5-methylbenzyl)ethan-1-amine] | – | did not have any significant effect
